The record followed here is PubChem BioAssay (NCI).

What all share (assay): NCI tumour cell line growth inhibition, 48 h
Test [1] relates to OVCAR-8 ovarian.
The subject of test [2] is HCT-15 colon.
Test [3] deals with UO-31 renal.
For test [4], the system named is OVCAR-3 ovarian.
The subject of test [5] is 786-0 renal.
The subject of test [6] is SW-620 colon.
The subject of test [7] is HS 578T breast.
For test [8], the system named is HOP-92 NSCLC.
For test [9], the system named is A549 NSCLC.
Test [10] deals with HCC-2998 colon.

Molecules are shown by their SMILES. Several values for one entry are separate records, joined by “and”; a condition that tells them apart may be missing. Equal entries are not always repeated.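 Dose response: 5 concentrations. Exposure: 48 h. Format: 96-well plates. Endpoint: linear interpolation; highest concentration if not reached. GI50 is the concentration that inhibits growth by half. The concentration for full growth arrest is given as TGI.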

`O=C(CCCSc1nc(-c2ccccc2)cc(-c2ccc(Cl)cc2)n1)NO`: the GI50 is 0.596 µM in [1]; 0.382 µM in test [2]; 0.352 µM in test [3]; 0.675 µM in test [4]; 1.47 µM in [5]; 1.66 µM in test [6]. Moreover, the GI50 is 4.78 µM in test [7], 2.29 µM in [8], 2.31 µM in [9] and 3.03 µM in [10]. In addition, the TGI in [1] amounted to 16.2 µM; in [2], 13.5 µM; in test [3] it was 2.1 µM; in [4], 9.38 µM; in [5], 13.3 µM; in [6] it was 13 µM. In addition, the TGI in [7] amounted to 24 µM; in [8], 8.26 µM; in [9] it was 12.4 µM; in test [10] it was 13.2 µM.
On to `CCCOC(=O)CCn1c(SC)nc2[nH]cc(-c3ccccc3)c2c1=O`, for which the GI50 in test [1] is 20.5 µM; in [2] it was 37.7 µM; in test [3], 23.9 µM; in [4], 19.9 µM; in test [5], 2.71 µM; in test [6] it was 28.3 µM. Further, the GI50 was 28.1 µM in test [7], 3.64 µM in test [8], 15.8 µM in test [9] and 73.5 µM in [10]. Besides, the TGI in [1] is greater than 100 µM; in test [2], greater than 100 µM; in test [3], 75.5 µM; in test [4], 54.1 µM; in [5], greater than 100 µM; in test [6], greater than 100 µM. The TGI is greater than 100 µM in [7], 40.4 µM in [8], 65.8 µM in test [9] and greater than 100 µM in [10].
Regarding `C/C=C/[C@@H]1OC(=O)C2=C[C@@H](O)[C@@H](/C=C/C)O[C@H]21`, the GI50 is 13.4 µM in test [1]; 2.82 µM in test [2]; 3.05 µM in test [3]; 2.45 µM in [4]; 2.53 µM in test [5]; 0.989 µM in test [6]. The GI50 in test [7] is 17.1 µM; in test [8], 2.4 µM; in [9] it was 15.8 µM; in test [10], 28.3 µM. For the same molecule, the TGI in [1] was 34.1 µM; in test [2], 17.2 µM; in test [3], greater than 35.7 µM; in [4], 13.1 µM; in [5], 8.36 µM; in [6], 3.13 µM. The TGI in test [7] was 41.2 µM; in [8] it was 9.12 µM; in test [9], 34 µM; in test [10], 55 µM.
`O=C(CN(/C=C/C(=O)C(F)(F)F)c1ccccc1)c1ccc(Cl)c(Cl)c1`: the GI50 is 16.6 µM in [1]; 14.6 µM in test [2]; 11.4 µM in test [3]; 14.1 µM in test [4]; 17.6 µM in test [5]; 14.6 µM in [6]. For the same molecule, the GI50 in [7] was 14.8 µM; in [8] it was 17.7 µM; in test [9], 13.4 µM; in test [10], 15.8 µM. Besides, the TGI in test [1] turned out to be 33 µM; in test [2] it was 28.2 µM; in test [3] it was 24.3 µM; in [4], 30 µM; in test [5] it was 37.5 µM; in test [6], 30.1 µM. In addition, the TGI was determined as 49.6 µM in [7], 38.5 µM in test [8], 29.8 µM in [9] and 29.9 µM in test [10].
On to `COC(=O)C(F)C(Br)C(=O)OC` (stereo not drawn), for which the TGI was 12.6 µM in [1]; 3.84 µM in [2]; 3.52 µM in test [3]; 4.33 µM in test [4]; 6.03 µM in test [5]; 4.56 µM in test [6]. For the same molecule, the TGI was determined as 68.6 µM in test [7], 4.96 µM in [8], 39.1 µM in test [9] and 21 µM in test [10].
Turning to `CCCc1cc(=O)n2c(C(=O)Nc3ccccc3OC)c(C(=O)Nc3ccc(F)cc3)sc2n1`, the GI50 in [1] is 5.67 µM; in test [2] it was 72 µM; in test [3], 23.4 µM; in test [4], 9.56 µM; in test [5], 2.91 µM; in test [6] it was 31 µM. Besides, the GI50 was 6.27 µM in test [7], 1.43 µM in [8], 5.27 µM in [9] and 131 µM in test [10]. Further, the TGI in test [1] was 20.7 µM; in test [2], greater than 160 µM; in [3] it was 81.8 µM; in test [4] it was 34.1 µM; in test [5], 10.2 µM; in test [6], greater than 160 µM. The TGI in [7] is 25.6 µM; in test [8], 4.73 µM; in test [9], 20.2 µM; in test [10] it was greater than 160 µM.
On to `c1ccc(P(CCP(CCP(c2ccccc2)c2ccccc2)c2ccccc2)CCP(c2ccccc2)c2ccccc2)cc1` (stereo not drawn), for which the GI50 is > 10 µM and 1.87 µM in [1]; greater than 10 µM in [4]; > 10 µM and 2.25 µM in [8]. Also, the TGI in test [1] was greater than 10 µM; in [2], greater than 10 µM; in [3], greater than 10 µM; in [4], greater than 10 µM; in test [5], 3.21 µM; in test [6] it was greater than 10 µM. Further, the TGI in test [7] was greater than 10 µM; in test [8], greater than 10 µM; in [9], greater than 10 µM; in test [10], 4.52 µM.
Regarding `CCOC(=O)c1nc(Nc2ccc(Cl)cc2)c2ccccc2n1`, the GI50 in test [1] is 12.3 µM; in test [2] it was 14.9 µM; in [3] it was 8.87 µM; in test [4] it was 6.11 µM; in [5] it was 10.4 µM; in test [6], 17.2 µM. Further, the GI50 was 11.3 µM in test [7], 9.49 µM in test [8], 11.3 µM in test [9] and 8.46 µM in test [10]. Further, the TGI in [1] is 28.5 µM; in test [2], greater than 50 µM; in test [3], 18.8 µM; in test [4] it was 13.2 µM; in [5], 21.4 µM; in test [6] it was greater than 50 µM. The TGI in [7] was determined as 27.2 µM; in test [8], 26.8 µM; in [9], 26.2 µM; in test [10] it was 15.6 µM.
Take `CCCOc1nc(SCCC)nc2c1cnn2-c1ccccc1`: the GI50 in test [1], in test [2], in test [3], in test [4], in [5] and in test [6] was greater than 100 µM in each case. In addition, the GI50 in [7] is greater than 100 µM; in test [8], 2.93 µM; in test [9] it was greater than 100 µM; in test [10], greater than 100 µM. For the same molecule, the TGI in test [1], in test [2], in test [3], in test [4], in test [5] and in test [6] was greater than 100 µM each time. The TGI in test [7], in test [8], in test [9] and in test [10] was greater than 100 µM in each case.
Turning to `Cn1ccnc1C(=O)/C=C/c1ccc(CC(=O)Nc2ccc(C(F)(F)F)cc2)cc1`, the GI50 in test [1] is 4.9 µM; in test [2], 1.4 µM; in [3] it was 2.51 µM; in [4], 2.95 µM; in [5], 1.81 µM; in test [6], 4.17 µM. The GI50 in [7] was 6.14 µM; in test [8], 2.4 µM; in [9] it was 3.82 µM; in test [10], 2.87 µM. Further, the TGI in [1] is greater than 16.7 µM; in test [2], greater than 16.7 µM; in test [3], 4.76 µM; in test [4], 6.88 µM; in [5] it was 4.07 µM; in test [6], greater than 16.7 µM. Moreover, the TGI is greater than 16.7 µM in [7], 5.66 µM in [8], 10.3 µM in [9] and 5.44 µM in test [10].
Take `Nc1n[nH]c2cccc(C#Cc3cccc(C(=O)Nc4cc(CN5CCOCC5)cc(C(F)(F)F)c4)c3)c12`: the GI50 is 4.63 µM in test [1]; 3.57 µM in test [2]; 2.03 µM in test [3]; 7.41 µM in test [4]; 3.97 µM in test [5]; 4.59 µM in test [6]. Further, the GI50 was 2.75 µM in [7], 2.78 µM in test [8], 5.32 µM in test [9] and 3.3 µM in [10]. In addition, the TGI amounted to 20.6 µM in test [1]; 15.2 µM in test [2]; 11.1 µM in test [3]; 31.3 µM in [4]; 15 µM in test [5]; 24.3 µM in [6]. The TGI in test [7] is 34.1 µM; in [8], 9.61 µM; in [9] it was 19.7 µM; in [10], 12.2 µM.
Regarding `COC(=O)C1=C(OC(=O)c2ccc(Cl)cc2)C(C(=O)OC)[C@@]2(O)[C@@H](C(=O)OC)C(c3ccccc3Cl)C[C@@H]1[C@@H]2C(=O)OC` (stereo partly drawn), the GI50 in test [1] is 2.61 µM; in test [2] it was 3.04 µM; in test [3], 4.03 µM; in test [4], 1.76 µM; in test [5], 7.27 µM; in test [6], 4.54 µM. In addition, the GI50 in [7] was 3.79 µM; in test [8], 47.2 µM; in [9], 3.16 µM; in [10] it was 14.3 µM. Besides, the TGI is 12.8 µM in test [1]; greater than 100 µM in test [2]; 24 µM in test [3]; 5.95 µM in test [4]; greater than 100 µM in [5]; greater than 100 µM in [6]. For the same molecule, the TGI in [7], in test [8], in test [9] and in test [10] was greater than 100 µM each time.
As to `N=C(N)c1ccc(COc2ccccc2OCc2ccc(C(=N)N)cc2)cc1`, the GI50 in test [1] is 48.2 µM; in [2], 75.6 µM; in [3], greater than 100 µM; in test [4], 16.4 µM; in test [5], 29.8 µM; in [6], 43.5 µM. Also, the GI50 in [7] is 18.2 µM; in test [8], 11.4 µM; in test [9], 57.5 µM; in test [10] it was 86.8 µM. In addition, the TGI in test [1] is greater than 100 µM; in test [2], greater than 100 µM; in test [3], greater than 100 µM; in [4], 53.5 µM; in [5] it was greater than 100 µM; in test [6], greater than 100 µM. Besides, the TGI in [7] was 52.6 µM; in test [8], 86.2 µM; in [9] it was greater than 100 µM; in test [10], greater than 100 µM.
For `COc1cc2c3c(n(C)c(=O)c2cc1OC)-c1cc2c(cc1/C3=C\C(N)CN)OCO2` (stereo not drawn), the GI50 in [1] was 1.75 µM; in [2], 2.16 µM; in [3], 4.44 µM; in [4], 1.92 µM; in test [5], 1.27 µM; in [6], 0.689 µM. Besides, the GI50 was 4.2 µM in [7], 0.368 µM in [8], 3.5 µM in [9] and 3.22 µM in [10]. Also, the TGI was 18.8 µM in test [1]; 16.6 µM in test [2]; greater than 36.5 µM in [3]; 6.88 µM in [4]; 9.92 µM in [5]; 11.9 µM in test [6]. For the same molecule, the TGI in test [7] was 41.4 µM; in [8] it was 6.8 µM; in test [9], 21.1 µM; in test [10], 50 µM.
In the case of `O=C(c1cccnc1)c1cc(-c2ccccn2)c(=O)n2ccccc12`, the GI50 in test [1], in test [2], in [3], in test [4], in [5] and in test [6] was greater than 100 µM in each case. The GI50 in [7], in [8], in test [9] and in test [10] was greater than 100 µM each time. The TGI in test [1], in [2], in test [3], in test [4], in [5] and in [6] was greater than 100 µM each time. Also, the TGI in [7], in [8], in test [9] and in test [10] was greater than 100 µM each time.
